Measurements: US20240270821A1, “GIP/GLP1/GCG TRI-RECEPTOR AGONISTS AND USES THEREOF” (priority 2023, published 2024)
Where two headings read alike, the source gives them in different places. Starred links: 1 amine or outer side, 2 acyl side, 3 side chain; linkers in the order of their positions; H or OH if unused. Non-standard residues stand in square brackets, D forms with d. Groups on a side chain read outwards from the residue. *: point of attachment. C20 diacid = O=C(O)CCCCCCCCCCCCCCCCCCC(=O)*; C18 diacid = O=C(O)CCCCCCCCCCCCCCCCC(=O)*; γGlu = O=C(O)[C@H](CCC(=O)[*:2])N[*:1]; αMe4Pal = C[C@](N)(Cc1ccncc1)C(=O)O; αMeY = C[C@](N)(Cc1ccc(O)cc1)C(=O)O; Hyp = O=C(O)[C@@H]1C[C@@H](O)CN1; 4Pal = N[C@@H](Cc1ccncc1)C(=O)O; αMeL = CC(C)C[C@](C)(N)C(=O)O; Orn = NCCC[C@H](N)C(=O)O; AEEA = NCCOCCOCC(=O)O; Aib = CC(C)(N)C(=O)O

Experiments:
Assay type in all cases: cell-based
hGIPR [1] = biological target: T1, hGIPR (Homo sapiens, UniProt P48546); assay: Functional cAMP activity in the presence of 1% HSA; conditions: read-out: cAMP Rel EC50, hGIPR
T1 sequence (P48546 22-466): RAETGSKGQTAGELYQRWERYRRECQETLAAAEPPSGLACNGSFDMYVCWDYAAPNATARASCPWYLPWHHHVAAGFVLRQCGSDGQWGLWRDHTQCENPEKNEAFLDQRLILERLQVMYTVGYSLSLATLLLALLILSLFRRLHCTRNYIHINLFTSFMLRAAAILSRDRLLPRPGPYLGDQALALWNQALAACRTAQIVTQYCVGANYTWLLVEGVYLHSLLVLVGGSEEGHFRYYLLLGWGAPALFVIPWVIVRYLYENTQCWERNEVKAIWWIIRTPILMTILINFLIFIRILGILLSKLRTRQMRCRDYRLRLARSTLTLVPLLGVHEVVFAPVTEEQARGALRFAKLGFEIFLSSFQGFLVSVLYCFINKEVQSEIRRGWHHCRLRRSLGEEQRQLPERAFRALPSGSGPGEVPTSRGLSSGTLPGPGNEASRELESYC

hGLP-1R [2] = biological target: T2, hGLP-1R (Homo sapiens, UniProt P43220); assay: Functional cAMP activity in the presence of 1% HSA; conditions: read-out: cAMP Rel EC50, hGLP-1R
T2 sequence (P43220 24-463): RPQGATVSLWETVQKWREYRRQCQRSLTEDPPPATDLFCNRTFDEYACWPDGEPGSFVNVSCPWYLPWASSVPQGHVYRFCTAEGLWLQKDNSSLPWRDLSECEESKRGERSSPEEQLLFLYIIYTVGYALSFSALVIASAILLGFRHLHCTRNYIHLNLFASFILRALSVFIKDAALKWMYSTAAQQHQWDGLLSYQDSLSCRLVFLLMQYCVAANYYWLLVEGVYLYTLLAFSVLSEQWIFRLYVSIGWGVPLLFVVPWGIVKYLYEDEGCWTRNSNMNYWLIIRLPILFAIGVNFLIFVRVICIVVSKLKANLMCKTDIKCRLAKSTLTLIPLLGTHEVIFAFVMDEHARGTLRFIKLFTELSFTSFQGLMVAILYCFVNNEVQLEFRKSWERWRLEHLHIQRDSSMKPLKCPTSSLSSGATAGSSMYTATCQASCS

human GcgR = human GcgR (Homo sapiens, UniProt P47871); assay: Functional cAMP activity in the presence of 1% HSA; conditions: read-out: cAMP Rel EC50, hGcgR
human GcgR, sequence (P47871 26-477): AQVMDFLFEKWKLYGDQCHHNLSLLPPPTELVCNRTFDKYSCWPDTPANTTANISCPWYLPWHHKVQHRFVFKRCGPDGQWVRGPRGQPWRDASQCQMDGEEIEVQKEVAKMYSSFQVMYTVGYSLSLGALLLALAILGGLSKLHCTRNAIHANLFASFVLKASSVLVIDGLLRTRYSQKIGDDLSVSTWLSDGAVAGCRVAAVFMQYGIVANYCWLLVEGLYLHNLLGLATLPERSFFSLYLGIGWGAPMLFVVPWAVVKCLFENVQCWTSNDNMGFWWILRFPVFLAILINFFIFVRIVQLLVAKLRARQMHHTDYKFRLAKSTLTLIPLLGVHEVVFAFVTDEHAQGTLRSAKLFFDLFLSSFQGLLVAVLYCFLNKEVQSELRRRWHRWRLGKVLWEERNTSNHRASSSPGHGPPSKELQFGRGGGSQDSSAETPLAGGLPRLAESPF

hGIPR [3] = biological target: T1, hGIPR; assay: Functional cAMP activation in the presence of 0.1% casein (no HSA); conditions: read-out: Relative cAMP EC50, hGIPR;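 as to Relative cAMP EC50, hGIPR: intracellular cAMP rise after 30 min at 37 °C read by HTRF against a standard curve, scaled between buffer alone (0%) and top control ligand concentration (100%), four-parameter fit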;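 as to Relative cAMP EC50, hGLP-1R: intracellular cAMP rise after 30 min at 37 °C read by HTRF, normalized between buffer only (0%) and maximal control ligand (100%), four-parameter variable-slope fit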;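 as to Relative cAMP EC50, hGcgR: intracellular cAMP rise after 30 min at 37 °C, read by HTRF against a cAMP standard curve, scaled from buffer only (0%) to maximal control ligand response (100%)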
hGLP-1R [4] = biological target: T2, hGLP-1R; assay: as above; conditions: read-out: Relative cAMP EC50, hGLP-1R
hGcgR = hGcgR (Homo sapiens, UniProt P47871); assay: as above; conditions: read-out: Relative cAMP EC50, hGcgR;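 also: intracellular cAMP rise after 30 min at 37 °C, read by HTRF against a cAMP standard curve, scaled from buffer only (0%) to maximal control ligand response (100%)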
hGcgR, sequence (P47871 26-477): as above

[5] = in the presence of 0.1% casein (no HSA), geometric mean

Substance	EC50 (hGIPR [1]) [nM]	EC50 (hGLP-1R [2]) [nM]	EC50 (human GcgR) [nM]	EC50 (hGIPR [3]; [5]) [nM]	EC50 (hGLP-1R [4]; [5]) [nM]	EC50 (hGcgR; [5]) [nM]	EC50 (hGIPR [3]) [nM]	EC50 (hGLP-1R [4]) [nM]	EC50 (hGcgR) [nM]
H-Y[Aib]QGTFTSDFS[Orn][αMeL]LDKK([AEEA-γGlu-C18 diacid])AQ[Aib]AFIEYLLEGGPSSGAPP[Hyp]GGS-NH2 [Example 237]	30.9	291	441	0.228	3.4	3.77	–	–	–
H-Y[Aib]QGTFTSDFS[Orn][αMeL]LDKK([AEEA-γGlu-C18 diacid])AQ[Aib]AFIEYLLEGGPSSGAP[Hyp]PGGS-NH2 [Example 236]	24.8	261	309	0.309	3.33	2.23	–	–	–
H-Y[Aib]QGTFTSDFS[Orn][αMeL]LDKK([AEEA-γGlu-C18 diacid])AQ[Aib]AFIEYLLEGGPSSGEPPPSGS-NH2 [Example 131]	91.8	984	976	0.416	5.51	2.64	–	–	–
H-Y[Aib]QGTFTSDFS[Orn][αMeL]LDKK([AEEA-γGlu-C18 diacid])AQ[Aib]AFIEYLLEGG[Hyp]SSGAPPPGGS-NH2 [Example 234]	31.1	604	702	0.322	4.72	7.87	–	–	–
H-Y[Aib]QGTFTSDFS[Orn][αMeL]LDKK([AEEA-γGlu-C18 diacid])AQ[Aib]AFIEYLLE[Aib]GESSGAPPPSGS-NH2 [Example 240]	10.4	396	521	0.214	3.62	2.02	–	–	–
H-Y[Aib]QGTFTSDFS[Orn][αMeL]LDKK([AEEA-γGlu-C18 diacid])AQ[Aib]AFIEYLLE[Aib]GHSSGAPPPSGE-NH2 [Example 247]	12.9	291	443	0.0794	2.8	1.76	–	–	–
H-Y[Aib]QGTFTSDFS[Orn][αMeL]LDKK([AEEA-γGlu-C18 diacid])AQ[Aib]AFIEYLLE[dA]GHSSGAPPPSGE-NH2 [Example 207]	15.2	225	770	0.321	4.36	4.24	–	–	–
H-Y[Aib]QGTFTSDFS[Orn][αMeL]LDKK([AEEA-γGlu-C18 diacid])AQ[Aib]AFIE[4Pal]LLEGGPSSGAPPPGGS-NH2 [Example 496]	60.8	1480	1500	–	–	–	0.387	9.69	8.25
H-Y[Aib]QGTFTSDFS[Orn][αMeL]LDKK([AEEA-γGlu-C18 diacid])AQ[Aib]AFIE[αMeY]LIEGGPSSGAPPPSGS-NH2 [Example 839]	21.9	60.6	1110	0.221	0.469	5.05	–	–	–
H-Y[Aib]QGTFTSDFS[Orn][αMeL]LDKK([AEEA-γGlu-C18 diacid])AQ[Aib]QFIEYLLAGGPSSGAPPPEGS-NH2 [Example 96]	49.3	836	2150	0.456	3.92	14.1	–	–	–
H-Y[Aib]QGTFTSDFS[Orn][αMeL]LDKK([AEEA-γGlu-C18 diacid])AQ[αMe4Pal]AFIEYLIE[Aib]GPSSGAPPPSGS-NH2 [Example 811]	25.8	246	175	0.14	1.48	0.724	–	–	–
H-Y[Aib]QGTFTSDFS[Orn][αMeL]LDKK([AEEA-γGlu-C18 diacid])AQ[αMe4Pal]AFIE[αMeY]LIEGGPSSGAPPPSGS-NH2 [Example 845]	23.3	89.1	203	0.178	0.161	0.626	–	–	–
H-Y[Aib]QGTFTSDFS[Orn][αMeL]LDKK([AEEA-γGlu-C18 diacid])AQ[αMe4Pal]DFIEYLIE[Aib]GPSSGAPPPSGS-NH2 [Example 880]	76.2	943	562	0.116	7.69	3.53	–	–	–
H-Y[Aib]QGTFTSDFS[Orn][αMeL]LDKK([AEEA-γGlu-C18 diacid])AQ[αMe4Pal]EFIEYLIE[Aib]GPSSGAPPPSGS-NH2 [Example 879]	20.1	591	329	0.169	4	2.16	–	–	–
H-Y[Aib]QGTFTSDFS[Orn][αMeL]LDKK([AEEA-γGlu-C20 diacid])AQ[Aib]AFIEWLLAGGPSSGEPPPSGE-NH2 [Example 103]	35.1	482	2590	0.2	3.27	10.5	–	–	–
H-Y[Aib]QGTFTSDFS[Orn][αMeL]LDKK([AEEA-γGlu-C20 diacid])AQ[Aib]AFIEWLLEGGPSSGAPPPEGE-NH2 [Example 101]	133	1090	2810	0.436	4.3	10	–	–	–
H-Y[Aib]QGTFTSDFS[Orn][αMeL]LDKK([AEEA-γGlu-C20 diacid])AQ[Aib]AFIEYLLAGGPSSGAPPPSEG-NH2 [Example 60]	33	409	1210	0.135	1.93	8.96	–	–	–
H-Y[Aib]QGTFTSDFS[Orn][αMeL]LDKK([AEEA-γGlu-C20 diacid])AQ[Aib]AFIEYLLAGGPSSGAPPPSGD-NH2 [Example 81]	50.2	430	1580	0.246	2.19	7.78	–	–	–
H-Y[Aib]QGTFTSDFS[Orn][αMeL]LDKK([AEEA-γGlu-C20 diacid])AQ[Aib]AFIEYLLAGGPSSGAPPPSGE-NH2 [Example 82]	87.8	394	1070	0.302	3.52	6.98	–	–	–
H-Y[Aib]QGTFTSDFS[Orn][αMeL]LDKK([AEEA-γGlu-C20 diacid])AQ[Aib]AFIEYLLAGGPSSGAPPPSGS-NH2 [Example 76]	45.5	436	2240	0.196	2.25	11.1	–	–	–
H-Y[Aib]QGTFTSDFS[Orn][αMeL]LDKK([AEEA-γGlu-C20 diacid])AQ[Aib]AFIEYLLAGGPSSGAPPPSGSE-NH2 [Example 84]	57.4	701	2280	0.21	1.61	8.48	–	–	–
H-Y[Aib]QGTFTSDFS[Orn][αMeL]LDKK([AEEA-γGlu-C20 diacid])AQ[Aib]AFIEYLLAGGPSSGAPPPSGS[AEEA]-NH2 [Example 83]	91.8	653	1270	0.185	2.85	10.2	–	–	–
H-Y[Aib]QGTFTSDFS[Orn][αMeL]LDKK([AEEA-γGlu-C20 diacid])AQ[Aib]AFIEYLLAGGPSSGEPPPEGE-NH2 [Example 102]	159	1060	2710	0.587	3.35	9.75	–	–	–
H-Y[Aib]QGTFTSDFS[Orn][αMeL]LDKK([AEEA-γGlu-C20 diacid])AQ[Aib]AFIEYLLAGGPSSGEPPPSGS-NH2 [Example 92]	62	735	2540	0.212	2.08	12	–	–	–
H-Y[Aib]QGTFTSDFS[Orn][αMeL]LDKK([AEEA-γGlu-C20 diacid])AQ[Aib]AFIEYLLAGGTSSGEPPPSGE-NH2 [Example 106]	91	977	2000	0.345	3.94	6.26	–	–	–
H-Y[Aib]QGTFTSDFS[Orn][αMeL]LDKK([AEEA-γGlu-C20 diacid])AQ[Aib]AFIEYLLEGGPSSGEPPPSEG-NH2 [Example 59]	166	1370	2160	0.54	4.8	6.57	–	–	–
H-Y[Aib]QGTFTSDFS[Orn][αMeL]LDKK([AEEA-γGlu-C20 diacid])AQ[Aib]AFIEYLLE[Aib]GPSSGAPPPSEG-NH2 [Example 61]	55.2	704	1310	0.122	2.05	3.57	–	–	–
H-Y[Aib]QGTFTSDFS[Orn][αMeL]LDKK([AEEA-γGlu-C20 diacid])AQ[Aib]AFIEYLLE[Aib]GPSSGAPPPSGS-NH2 [Example 73]	57.9	810	1530	0.114	2.44	4.58	–	–	–
